Source: PubChem BioAssay AID463206 (Broad Institute, 2010)
The source made the active and inactive calls.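 The calls were made as follows: active = caspase luminescence falls with dose and the half-maximal concentration AC50 from the fitted curve is at or below a set limit; inconclusive = flat fit at 30 to 70% signal loss, or invalid fit; inactive = AC50 above the limit, or signal rises instead.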

What follows are compounds tested on INS-1E cytokine-induced caspase-3/7, Caspase-Glo luminescence, 48 h (assay: suppression of cytokine-driven beta-cell apoptosis – INS-1E rat cells, luminescence, orthogonal assay for beta-cell apoptosis protection project, dose response (AID 463206)).

| SMILES | AC50 |
| --- | --- |
| CCOc1cccc(/C=N/NC(=O)c2cc(C3CC3)[nH]n2)c1O | > 26 µM (inactive) |
| CCn1c(-c2ccc(N(C)C)cc2)nc2ccccc21 | > 26 µM (inactive) |
| COC(=O)c1ccccc1NC(=O)c1nc(S(=O)(=O)Cc2ccccc2)ncc1Cl | > 26 µM (inactive) |
| Cc1cc(N/N=C\c2ccc(Br)cc2)nc(-n2nc(C)cc2C)n1 | > 26 µM (inactive) |
| CCN(CC)c1ccc(/C=N/Nc2nc(C)cc(C)n2)c(O)c1 | > 26 µM (inactive) |
| NC(=S)N/N=C/c1c(O)c(Br)cc2oc3c(c12)CCCC3 | > 26 µM (inactive) |
| CC1CN(S(=O)(=O)c2ccc(C(=O)NCCCn3ccnc3)cc2)CC(C)O1 (stereo not given) | > 26 µM (inactive) |
| C/C(N)=C(/C#N)C(=O)COC(=O)c1cc(-c2ccc(C)cc2)nc2ccccc12 | > 26 µM (inactive) |
| COc1cc(/C=N/N=C(N)N)ccc1OCc1ccc(Cl)cc1 | > 26 µM (inactive) |
| CCCCn1c(/C=N/Nc2nc3ccccc3[nH]2)nc2ccccc21 | > 26 µM (inactive) |
| Cn1c(-c2ccccc2)cc2c3no[n+]([O-])c3ccc21 | > 26 µM (inactive) |
| Cc1cc(N2CCN(C)CC2)ccc1NC(=O)c1c2c(nc3ccccc13)CCN(Cc1ccccc1)C2 | 14.7 µM |
| Cc1nnsc1C(=O)N/N=C/c1ccc2ccccc2c1O | > 26 µM (inactive) |
| Cc1ccccc1Oc1cc(-n2ncc(Cl)c(Cl)c2=O)ncn1 | > 26 µM (inactive) |
| O=C(Nc1ccc(F)cc1F)N1CCCN(CCOc2ccccc2)CC1 | > 26 µM (inactive) |
| Oc1ccccc1/C=N/Nc1ncc(Br)cn1 | > 26 µM (inactive) |
| O=C(NN=C(c1ccccc1)c1ccccn1)c1ccccc1 | > 26 µM (inactive) |
| CCCCCCCCCCOC(=O)Cn1c(COc2cccc(C)c2)[n+](C)c2ccccc21 | > 26 µM (inactive) |
| Cc1ccccc1OC1C(=O)N(Cc2ccc3c(c2)OCO3)C1c1sccc1C (stereo not given) | > 26 µM (inactive) |
| Cc1cc(C)nc(N/N=C2/CCCC/C2=C\c2ccccc2)n1 | > 26 µM (inactive) |
| Clc1ccc2c(N/N=C/c3cccc(Br)c3)ccnc2c1 | > 26 µM (inactive) |
| Cc1ccc2ccc3cccnc3c2n1 | > 26 µM (inactive) |
| COc1ccc(-c2cn(-c3ccc(OC)cc3)c3[n+]2-c2ccccc2CC3)cc1 | > 26 µM (inactive) |
| O=C(NNC(=S)Nc1ccc(Cl)c(Cl)c1)c1ccccn1 | > 26 µM (inactive) |

| SMILES | AC50 |
| --- | --- |
| CCOC(=O)c1cccc(-[n+]2c(-c3ccccc3)cc(-c3ccccc3)cc2-c2ccccc2)c1 | > 26 µM (inactive) |
| O=[N+]([O-])c1ccc(O)c(/C=N/NC(=S)Nc2ccc(Cl)cc2Cl)c1 | > 26 µM (inactive) |
| Cc1ccc(C(=O)NC(=S)/C=C2\N(C)c3ccccc3C2(C)C)cc1 | > 26 µM (inactive) |
| CCCCC[n+]1ccn(C2=C([O-])c3ccccc3C(=O)/C2=N\S(=O)(=O)c2ccc(Cl)cc2)c1 | > 26 µM (inactive) |
| COc1ccc(NC(=O)CN(C)C(=O)/C=C/c2ccc(S(=O)(=O)N3CCCCCC3)cc2)cc1 | > 26 µM (inactive) |
| O=C(Nc1cccc(Cl)c1)Nc1nnc(CSCCOc2ccc(Cl)cc2)s1 | > 26 µM (inactive) |
| O=C(Oc1c(CN2CCOCC2)cc(Cl)c2cccnc12)c1ccc(F)cc1 | > 26 µM (inactive) |
| COc1ccc(C(=O)/C(C#N)=N/Nc2ccc([N+](=O)[O-])cc2)cc1 | > 26 µM (inactive) |
| COc1ccc(N=C2S/C(=C\c3ccc(N4CCOCC4)o3)C(=O)N2CCc2c[nH]c3ccccc23)cc1 | > 26 µM (inactive) |
| CCN(CC)c1ccc(/C=N/NC(=O)c2cccc(S(=O)(=O)Nc3ccccc3OC)c2)c(O)c1 | > 26 µM (inactive) |
| CC1=NOC(=O)/C1=C/c1ccc(-c2ccc(Cl)cc2)o1 | > 26 µM (inactive) |
| COc1ccc(-c2cn(-c3ccc(Cl)cc3)c3[n+]2CCCCC3)cc1 | > 26 µM (inactive) |
| O=C(NCc1cccnc1)/C(=C\c1ccc(-c2ccc(Cl)c(Cl)c2)o1)S(=O)(=O)c1ccccc1 | > 26 µM (inactive) |
| O=C(Nc1ccc([N+](=O)[O-])cc1)Nc1ccc(Cl)cc1F | > 26 µM (inactive) |
| Cc1ccc(Cl)cc1N1CCN(C(=O)CSc2nnc3n2C(C)(C)Cc2ccccc2-3)CC1 | > 26 µM (inactive) |
| O=C(/C=C/c1cccc([N+](=O)[O-])c1)c1ccc([N+](=O)[O-])o1 | > 26 µM (inactive) |
| Cc1ccc(S(=O)(=O)Nc2ccccc2N(C)S(=O)(=O)c2ccc(C)cc2)cc1 | > 26 µM (inactive) |
| Cc1cccc(-n2c(C)cc(/C=N/n3cnnc3)c2C)c1 | > 26 µM (inactive) |
| Cc1nc2ccc(NC(=O)c3cc(S(=O)(=O)N(C)c4ccccc4)ccc3Cl)cc2s1 | > 26 µM (inactive) |
| O=C(/C=C/c1ccc(F)cc1)NC(=S)NNC(=O)c1cnccn1 | > 26 µM (inactive) |
| Cc1cccc2sc(NNC(=O)c3ccc(S(=O)(=O)N4CCc5ccccc5C4)cc3)nc12 | > 26 µM (inactive) |
| Cc1cccc(Cn2nnc3c2C(=O)c2ccccc2C3=O)c1 | > 26 µM (inactive) |
| COc1ccc(Cn2c(SCc3ccccc3C)nc3cc(OC)c(OC)cc3c2=N)cc1 | > 26 µM (inactive) |
| COc1cc2nc(N3CCN(c4cc(C)ccc4C)CC3)nc(N)c2cc1OC | > 26 µM (inactive) |

| SMILES | AC50 |
| --- | --- |
| COc1ccc2nc(N=Nc3ccc(O)c4ccccc34)sc2c1 | > 26 µM (inactive) |
| Nc1ccccc1C#CC(=O)c1ccccc1 | > 26 µM (inactive) |
| CCCc1sc(N/N=C/c2ccccn2)nc1-c1ccc(F)cc1 | > 26 µM (inactive) |
| O=C(c1ccc(-c2ccc(Cl)cc2)o1)N1CCN(c2ccc([N+](=O)[O-])cc2Cl)CC1 | > 26 µM (inactive) |
| C/C(=N/NC(=O)CN(c1ccccc1)S(=O)(=O)c1ccccc1)c1ccccc1O | > 26 µM (inactive) |
| NC(=S)N/N=C/c1ccc(C23CC4CC(CC(C4)C2)C3)cc1 | > 26 µM (inactive) |
| CCC(CC)C(=O)c1c[nH]c(C(=O)NCc2ccccn2)c1 | > 26 µM (inactive) |
| CCCCCc1ccc(OCCCC[n+]2ccccc2)c(CCCCC)c1 | > 26 µM (inactive) |
| CCN(CC)c1ccc(/C=N/NC(=O)CNC(=O)C2COc3ccccc3O2)c(O)c1 (stereo not given) | > 26 µM (inactive) |
| COc1ccc(Sc2nc(-c3ccccn3)ncc2OC)cc1 | > 26 µM (inactive) |
| CCN(CC)S(=O)(=O)c1ccc(Oc2ccc(S(=O)(=O)N(CC)CC)cc2)cc1 | > 26 µM (inactive) |
| COC(=O)c1ccc(NC(=O)c2cccnc2)cc1 | > 26 µM (inactive) |
| COc1ccc(C2CC(c3ccc4ccccc4c3OC(C)=O)=NN2C(C)=O)cc1 (stereo not given) | > 26 µM (inactive) |
| O=C(NCCCn1ccnc1)c1ccc(N2CCCCCC2)c([N+](=O)[O-])c1 | > 26 µM (inactive) |
| CN1/C(=C\C=C2/SC(=S)NC2=O)C(C)(C)c2ccccc21 | > 26 µM (inactive) |
| O=C(CNC(=O)c1ccc2c(c1)OCO2)N/N=C/c1cc(Br)ccc1O | > 26 µM (inactive) |
| CCCC1CCC(c2ccc(C(=O)NN)cc2)CC1 (stereo not given) | > 12 µM (inactive) |
| CCc1ccc(Nc2n[n+](-c3ccccc3)c(-c3c(Cl)cccc3Cl)s2)cc1 | > 26 µM (inactive) |
| O=C(NNC(=O)c1ccccc1OCc1ccc(F)cc1)c1ccccc1O | > 26 µM (inactive) |
| Cc1ccc(F)c([C@H]2C3C=CCC(c4ccccc4)C3C(=O)N2Cc2ccccc2)c1 (stereo not given in full) | > 26 µM (inactive) |
| Cc1cc(-n2c(SCC(=O)Nc3ccc(F)c(F)c3)nc3n[nH]c(C)c3c2=N)ccc1Cl | > 26 µM (inactive) |
| O=C(NCc1ccccc1)C1=C[C@@H](c2csc3ccccc23)C[C@@H](OCCCCO)O1 | > 26 µM (inactive) |
| O=C(NCc1cccnc1)c1ccc(-c2cc3ccccc3oc2=O)cc1 | > 26 µM (inactive) |
| COc1ccccc1NC(=O)Cn1cc(C(=O)c2ccco2)c2ccccc21 | > 26 µM (inactive) |

| SMILES | AC50 |
| --- | --- |
| Cc1cc(-c2ccccc2)cc(-c2ccccc2)[n+]1CCc1ccccc1 | > 26 µM (inactive) |
| CC1(C)Cc2c(c(N3CCOCC3)nc3sc4c(NN)ncnc4c23)CS1 | > 26 µM (inactive) |
| O=C(Nc1cc(S(=O)(=O)N2CCCCC2)ccc1Cl)c1ccccc1NS(=O)(=O)c1ccc(F)cc1 | > 26 µM (inactive) |
| O=C(c1cc(-c2cccc(O)c2)on1)N1CCN(C(c2ccccc2)c2ccccc2)CC1 | > 26 µM (inactive) |
| CC1C/C(=C/c2ccncc2)C(=O)/C(=C/c2ccncc2)C1 (stereo not given) | > 26 µM (inactive) |
| CC(=O)c1c(C)[nH]c(C(=O)OCCCCN2C(=O)c3ccccc3C2=O)c1C | > 26 µM (inactive) |
| Oc1ccc(Br)cc1/C=N/Nc1ccccn1 | > 26 µM (inactive) |
| Cc1ncc(CO)c(/C=N/Nc2ccc(C(F)(F)F)cn2)c1O | > 26 µM (inactive) |
| COc1ccccc1NC(=O)CN(c1ccc(C23CC4CC(CC(C4)C2)C3)cc1)S(C)(=O)=O | > 26 µM (inactive) |
| CCCC1(c2ccccc2)NC(=O)N(CC(=O)Nc2cc(C)ccc2OC)C1=O (stereo not given) | > 26 µM (inactive) |
| Cc1cccc(N2C(=S)N=C(Nc3c(C)cccc3C)C23CCOC(C)(C)C3)c1 (stereo not given) | > 26 µM (inactive) |
| O=C(N/N=C/c1ccc([N+](=O)[O-])o1)c1ccc(O)cc1 | > 26 µM (inactive) |
| CN(C)C(=O)c1ccc(NC(=O)c2cccnc2)cc1 | > 26 µM (inactive) |
| Cc1ccc(NC(=O)COc2ccc(N(C)C(=O)C(C)(C)C)cc2)cc1S(=O)(=O)N1CCCCC1 | > 26 µM (inactive) |
| COc1ccc(CCNc2ncnc3sc(C)cc23)cc1OC | > 26 µM (inactive) |
| CCC(C)c1ccc(NC(=S)NC2CCN(Cc3ccccc3)CC2)cc1 (stereo not given) | > 26 µM (inactive) |
| Cn1nnnc1N=N/C(=N/Nc1ccccc1)c1ccccc1 | > 12 µM (inactive) |
| CCCCC(=O)NC(c1ccc(Cl)cc1)c1ccc2cccnc2c1O (stereo not given) | > 12 µM (inactive) |
| CCN(CC)CCOc1ccc2c(c1)C(=NNC(=O)c1ccccn1)c1cc(OCCN(CC)CC)ccc1-2 | > 26 µM (inactive) |
| Cc1cc2nc(NCCCO)n(CC(=O)c3cc(C(C)(C)C)c(O)c(C(C)(C)C)c3)c2cc1C | > 26 µM (inactive) |
| Cc1nc2ccccc2nc1N/N=C/c1ccc(O)cc1O | > 26 µM (inactive) |
| COc1ccc(CCNc2ncnc3sccc23)cc1OC | > 26 µM (inactive) |
| Cn1nc([N+](=O)[O-])nc1Sc1cccc2cccnc12 | > 26 µM (inactive) |
